Measurements published in patent US11331369B2, “Endoparasitic depsipeptides” (Zoetis Services LLC, priority 2017, dated 2022).

Experiments:
[1] = tested on: circulating microfilariae (Dirofilaria immitis); assay: Heartworm Positive Dog Studies (effects on circulating microfilariae, clinical observations)
[2] = Canine pharmacokinetic (PK) study, single IV or oral dose; conditions: dog; for Vd / clearance / half-life / Cmax: in vivo; for Vd / clearance / half-life: iv, 0.2 mg/kg; for Cmax: po, 1 mg/kg; for F: oral 1 mg/kg
[3] = tested on: microfilariae of Dirofilaria immitis; assay: Dirofilaria immitis, Microfilaria (DiMF) In vitro Assay; format: cell-based; conditions: 72 h, read-out: DiMF Minimum Effective Dose (MED), approximately 72 hours incubation, microfilariae assessed for survival or paralysis
[4] = tested on: third stage larvae of Haemonchus contortus; assay: Haemonchus contortus L3 (HcL3) Assay; format: cell-based; conditions: 96 h, read-out: HcL3 Minimum Effective Dose (MED)
[5] = tested on: 4th stage larvae (L4) of Dirofilaria immitis; assay: Dirofilaria immitis, L4 Stage (DiL4) In Vitro Assay; format: cell-based; conditions: Dirofilaria immitis, 72 h, read-out: DiL4 Minimum Effective Dose (MED), approximately 72 hours incubation; L4 larvae assessed for survival or paralysis

| Compound | Vd [2] [L/kg] | clearance [2] [mL/min/kg] | half-life [2] [h] | Cmax [2] [ng/mL] | F [2] [%] | minimal effective concentration [3] [µM] | minimal effective concentration [4] [µM] | minimal effective concentration [5] [µM] | further results |
| --- | --- | --- | --- | --- | --- | --- | --- | --- | --- |
| CC(C)C[C@H]1C(=O)O[C@H](Cc2ccc(Cn3nc(C4CC4)cc3C3CC3)cc2)C(=O)N(C)[C@@H](CC(C)C)C(=O)O[C@H](C)C(=O)N(C)[C@@H](CC(C)C)C(=O)O[C@H](Cc2ccc(Cn3nc(C4CC4)cc3C3CC3)cc2)C(=O)N(C)[C@@H](CC(C)C)C(=O)O[C@H](C)C(=O)N1C [Example 1b-14, (3S,6R,9S,12R,15S,18R,21S,24R)-6,18-bis({4-[(3,5-dicyclopropyl-1H-pyrazol-1-yl)methyl]phenyl}methyl)-4,10,12,16,22,24-hexamethyl-3,9,15,21-tetrakis(2-methylpropyl)-1,7,13,19-tetraoxa-4,10,16,22-tetraazacyclotetracosan-2,5,8,11,14,17,20,23-octaone] | 2.7 | 0.9 | 138 | 111 | 10 | 0.3 |  |  | Mean MF/mL, Day 0 Pre-dose ([1]; heartworm positive dogs, blood, 3 dogs/treatment, baseline before oral dose): 15,000 MF/mL; Mean MF/mL, Day 0 Post-dose, 2 hours ([1]; heartworm positive dogs, blood, 3 dogs/treatment, oral dose (emodepside and 1b-14 1 mg/kg, 1b-25 up to 3 mg/kg), 2 hours post-dose): 20,000 MF/mL; Mean MF/mL, Day 1 ([1]; heartworm positive dogs, blood, 3 dogs/treatment, oral dose (emodepside and 1b-14 1 mg/kg, 1b-25 up to 3 mg/kg), Day 1): 14,000 MF/mL; Mean MF/mL, Day 7 ([1]; heartworm positive dogs, blood, 3 dogs/treatment, oral dose (emodepside and 1b-14 1 mg/kg, 1b-25 up to 3 mg/kg), Day 7): 15,000 MF/mL; Mean MF/mL, Day 14 ([1]; heartworm positive dogs, blood, 3 dogs/treatment, oral dose (emodepside and 1b-14 1 mg/kg, 1b-25 up to 3 mg/kg), Day 14): 33,000 MF/mL; Mean MF/mL, Day 21 ([1]; heartworm positive dogs, blood, 3 dogs/treatment, oral dose (emodepside and 1b-14 1 mg/kg, 1b-25 up to 3 mg/kg), Day 21): 28,000 MF/mL; adverse effects / clinical observations ([1]; heartworm positive dogs, 1 mg/kg (po)): no adverse clinical observations noted; average MF counts on day 21 ([1]; heartworm positive dogs, 1 mg/kg (po), 15,000 MF/mL of blood pre-dose): 28,000 MF/mL of blood; effects on circulating MF counts ([1]; heartworm positive dogs, 1 mg/kg (po), throughout the dog study): no significant effects on circulating MF counts; % Reduction of circulating microfilariae, Day 0 Post-dose, 2 hours ([1]; vs pre-dose (Day 0) counts, oral dose, 2 hours post-dose): −33%; % Reduction of circulating microfilariae, Day 1 ([1]; vs pre-dose (Day 0) counts, oral dose, Day 1): 7%; % Reduction of circulating microfilariae, Day 7 ([1]; vs pre-dose (Day 0) counts, oral dose, Day 7): 0%; % Reduction of circulating microfilariae, Day 14 ([1]; vs pre-dose (Day 0) counts, oral dose, Day 14): −120%; % Reduction of circulating microfilariae, Day 21 ([1]; vs pre-dose (Day 0) counts, oral dose, Day 21): −87% |
| CC(C)C[C@H]1C(=O)O[C@H](Cc2ccc(Cn3cc(OC(C)C)cn3)cc2)C(=O)N(C)[C@@H](CC(C)C)C(=O)O[C@H](C)C(=O)N(C)[C@@H](CC(C)C)C(=O)O[C@H](Cc2ccc(Cn3cc(OC(C)C)cn3)cc2)C(=O)N(C)[C@@H](CC(C)C)C(=O)O[C@H](C)C(=O)N1C [Example 1b-19, (3S,6R,9S,12R,15S,18R,21S,24R)-3,9,15,21-tetraisobutyl-6,18-bis[[4-[(4-isopropoxypyrazol-1-yl)methyl]phenyl]methyl]-4,10,12,16,22,24-hexamethyl-1,7,13,19-tetraoxa-4,10,16,22-tetrazacyclotetracosane-2,5,8,11,14,17,20,23-octaone] | 7.25 | 2.4 | 87 | 267 | 24 | 0.001 to 0.01 | 1 to 10 | 0.001 to 0.01 |  |
| CCOc1cnn(Cc2ccc(C[C@H]3OC(=O)[C@H](CC(C)C)N(C)C(=O)[C@@H](C)OC(=O)[C@H](CC(C)C)N(C)C(=O)[C@@H](Cc4ccc(Cn5cc(OCC)cn5)cc4)OC(=O)[C@H](CC(C)C)N(C)C(=O)[C@@H](C)OC(=O)[C@H](CC(C)C)N(C)C3=O)cc2)c1 [Example 1b-21, (3S,6R,9S,12R,15S,18R,21S,24R)-6,18-bis[[4-[(4-ethoxypyrazol-1-yl)methyl]phenyl]methyl]-3,9,15,21-tetraisobutyl-4,10,12,16,22,24-hexamethyl-1,7,13,19-tetraoxa-4,10,16,22-tetrazacyclotetracosane-2,5,8,11,14,17,20,23-octaone] | 28.4 | 15.5 | 36.1 | 145 | 78 | 0.001 to 0.01 | 1 to 10 | 0.0001 to 0.001 |  |
| CC(C)C[C@H]1C(=O)O[C@H](Cc2ccc(Cn3cccn3)cc2)C(=O)N(C)[C@@H](CC(C)C)C(=O)O[C@H](C)C(=O)N(C)[C@@H](CC(C)C)C(=O)O[C@H](Cc2ccc(Cn3cccn3)cc2)C(=O)N(C)[C@@H](CC(C)C)C(=O)O[C@H](C)C(=O)N1C [Example 1b-23, (3S,6R,9S,12R,15S,18R,21S,24R)-3,9,15,21-tetraisobutyl-4,6,10,16,18,22-hexamethyl-12,24-bis[[4-(pyrazol-1-ylmethyl)phenyl]methyl]-1,7,13,19-tetraoxa-4,10,16,22-tetrazacyclotetracosane-2,5,8,11,14,17,20,23-octaone] | 8.54 | 14 | 27 | 205 | 34 |  | ≤ 1 | 0.0001 to 0.001 |  |
| CC(C)C[C@H]1C(=O)O[C@H](Cc2ccc(Cn3ccc(C(F)(F)F)n3)cc2)C(=O)N(C)[C@@H](CC(C)C)C(=O)O[C@H](C)C(=O)N(C)[C@@H](CC(C)C)C(=O)O[C@H](Cc2ccc(Cn3ccc(C(F)(F)F)n3)cc2)C(=O)N(C)[C@@H](CC(C)C)C(=O)O[C@H](C)C(=O)N1C [Example 1b-69, (3S,6R,9S,12R,15S,18R,21S,24R)-3,9,15,21-tetraisobutyl-4,6,10,16,18,22-hexamethyl-12,24-bis(4-((3-(trifluoromethyl)-1H-pyrazol-1-yl)methyl)benzyl)-1,7,13,19-tetraoxa-4,10,16,22-tetraazacyclotetracosan-2,5,8,11,14,17,20,23-octaone] | 3.81 | 1 | 256 | 27 | 5 | 0.01 to 0.1 |  | 0.001 to 0.01 |  |
| CC(C)C[C@H]1C(=O)O[C@H](Cc2ccc(Cn3nccc3C3CC3)cc2)C(=O)N(C)[C@@H](CC(C)C)C(=O)O[C@H](C)C(=O)N(C)[C@@H](CC(C)C)C(=O)O[C@H](Cc2ccc(Cn3nccc3C3CC3)cc2)C(=O)N(C)[C@@H](CC(C)C)C(=O)O[C@H](C)C(=O)N1C [Example 1b-108, (3S,6R,9S,12R,15S,18R,21S,24R)-6,18-bis(4-((5-cyclopropyl-1H-pyrazol-1-yl)methyl)benzyl)-3,9,15,21-tetraisobutyl-4,10,12,16,22,24-hexamethyl-1,7,13,19-tetraoxa-4,10,16,22-tetraazacyclotetracosan-2,5,8,11,14,17,20,23-octaone] | 5.6 | 6 | 51 | 178 | 30 | 0.001 to 0.01 | ≤ 1 | 0.0001 to 0.001 |  |
